According to patent US20130225629A1, “TARGETING PI3K/MTOR SIGNALLING AND NEUTROPHIL RECRUITMENT FOR TREATMENT OF ENTERITIS” (THE UNIVERSITY OF NORTH CAROLINA AT CHAPEL HILL, priority 2012, published 2013):

Legend:
C. jejuni = assay type: in vivo, mice
Text: All animal protocols were approved by the Institutional Animal Care and Use Committee of the University of North Carolina at Chapel Hill (Chapel Hill, N.C., United States of America). Germ-free 8 to 12 week old II10^−/−; NF-κBEGFP (129/SvEv; C57BL/6 mixed background) mice were transferred from germ-free isolators and immediately gavaged with 10^9 C. jejuni cfu/mouse (strain 81-176 (Korlath et al., 1985)). Mice were then housed under Specific Pathogen-Free (SPF) conditions and sacrificed at 5 or 12 days. Germ-free II10^−/−; NF-κB^EGFP mice were also gavaged with 10^7 Salmonella typhimurium (S. typhimurium strain CA32) cfu/mouse for 2 days or 10^7 Escherichia coli (E. coli strain NC 101) cfu/mouse for 12 days. Conventionally-derived II10^−/−; NF-κB^EGFP mice were put on an antibiotic cocktail (streptomycin 2 g/L, gentamycin 0.5 g/L, bacteriocin 1 g/L and ciprofloxacin 0.125 g/L) in water for 7 days and antibiotics withdrawn 24 hours prior to infection. The mice were then gavaged with 10^9 C. jejuni cfu/mouse for 14 days. To inhibit mTOR signaling, mice were injected daily intraperitoneally (i.p.) with rapamycin (1.5 mg/kg) (Fisher Scientific, Hampton, N.H., United States of America). At the end of the experiment, mice were euthanized using CO2 intoxication. Colon, mesenteric lymph nodes (MLN) and spleen were collected for further processing RNA, protein or C. jejuni culture on Campylobacter selective blood plates (Remel, Thermo Scientific, Hampton, N.H., United States of America) for 48 h at 37° C. using the GasPak system (Becton Dickinson, Franklin Lakes, N.J., United States of America). […] Colons were fixed in 10% buffered formalin (Fisher Scientific, Hampton, N.H., United States of America) overnight, paraffin-embedded, sectioned, and stained with H&E for histological evaluation. Images were acquired using a DP71 camera and DP Controller 3.1.1.276 (Olympus, Center Valley, Pa., United States of America). Intestinal inflammation was scored by evaluating the degree of lamina propria immune cell infiltration, goblet cell depletion, architectural distortion, as well as crypt hyperplasia, ulceration, and abscesses using a score from 0-4. (Lippert et al., 2009). Cecal and colonic inflammation induced by S. typhimurium was evaluated using a score from 0-13 as described. (Hapfelmeier et al., 2005).
MLN and spleen were aseptically resected. Colon tissue was opened, resected and washed three times in sterile PBS. […] C. jejuni colonies were counted and data presented as colony forming unit (cfu)/g tissue.

II1β mRNA = assay: Real-time RT-PCR of colonic II1β mRNA; assay type: in vivo, mice; details: AS252424 vs vehicle treated infected mice
Method: Total RNA from colonic tissue was extracted using TRIzol® kit (Invitrogen, Carlsbad, Calif., United States of America). Complementary DNA was prepared using M-MLV (Invitrogen). Messenger RNA levels of proinflammatory genes were determined using SYBR® Green PCR Master Mix (Applied Biosystems, Carlsbad, Calif., United States of America) on an ABI 7900HT Fast Real-Time PCR System and normalized to Gapdh. The polymerase chain reactions were performed according to the manufacturer's recommendation. The following gene primers were used: Gapdh_forward: 5′-[…]-3′ (SEQ ID NO: 2), Gapdh_reverse: 5′-[…]-3′ (SEQ ID NO: 3), II-1_forward: 5′-[…]-3′ (SEQ ID NO: 4), II-1_reverse: 5′-[…]-3′ (SEQ ID NO: 5), Cxcl2_forward: 5′-[…]-3′ (SEQ ID NO: 6), Cxcl2_reverse: 5′-[…]-3′ (SEQ ID NO: 7), II-17a_forward: 5′-[…]-3′ (SEQ ID NO: 8), II-17a_reverse: 5′-[…]-3′ (SEQ ID NO: 9), II12p40_forward: […] (SEQ ID NO: 10), II12p40_reverse: […] (SEQ ID NO: 11), Tnf forward: […] (SEQ ID NO: 12), Tnf reverse: […] (SEQ ID NO: 13).
Total RNA from intestinal tissues was extracted using TRIzol® kit (Invitrogen, Carlsbad, Calif., United States of America) following the manufacture's guide. cDNA was reverse-transcribed using M-MLV (Invitrogen). Proinflammatory 111β, Cxcl2, II17a and Tnfα mRNA expression levels were measured using SYBR® Green PCR Master mix (Applied Biosystems, Carlsbad, Calif., United States of America) on an ABI 7900HT Fast Real-Time PCR System and normalized to Gapdh. The PCR primers used were reported previously. (Sun et al., 2012). The PCR reactions were performed for 40 cycles according to the manufacturer's recommendation, and RNA fold changes were calculated using the ΔΔct method.

AKT (S473) = assay: Western blot of AKT phosphorylation in colonic lysates of C. jejuni infected mice; assay type: in vivo; details: AS252424 10 mg/kg i.p. daily, 6 days
Method: A segment of the distal colon was lysed in 300 μl Laemmli buffer, homogenized and heated at 95° C. for 5 min. 20 μg of total protein were separated by SDS-PAGE and transferred to nitrocellulose membranes. Targeted protein was detected using enhanced chemiluminescence reaction (ECL) as described previously (Muhlbauer et al., 2008). Primary antibodies used were phosphor-AKT (S473), phosphor-p70S6K (T389), total AKT (all from Cell Signaling, Danvers, Mass., United States of America) and EGFP (Sigma, St. Louis, Mo., United States of America). The density of Western blot bands was quantified using ImageJ and data were normalized to total AKT control.

O=C1NC(=O)/C(=C/c2ccc(-c3ccc(F)cc3O)o2)S1 [AS252424]
levels of viable C. jejuni in the spleen (C. jejuni; AS252424 vs infected vehicle-treated mice): strongly reduced | decrease of viable C. jejuni in MLN (C. jejuni; mouse, in vivo): 90% | decrease of viable C. jejuni in colon (C. jejuni; mouse, in vivo): 97% | block of C. jejuni-induced I11β mRNA accumulation (II1β mRNA): 77% | AKT phosphorylation (S473) in colonic extracts (AKT (S473)): modest reduction
